According to ChEMBL document CHEMBL4765421, “Synthesis of natural 3'-Prenylchalconaringenin and biological evaluation of ameliorating non-alcoholic fatty liver disease and metabolic syndrome” (Eur J Med Chem, 2020):
Activity calls are given as the source filed them. No cut-off for these calls is given here.

Key:
HepG2 [1] = assay: Cytotoxicity against human HepG2 cells assessed as reduction in cell viability at 10 to 20 uM by MTT assay; type: cell-based; details: hepg2, 20 µM, dose 10-20 µM
HepG2 [2] = assay: Hypolipidemic activity in oleic, palmitic, linoleic and arachidonic acid 29:47:18:6 (v/v)-induced hyperlipidemia in human HepG2 cells assessed as reduction in lipid content at 10 uM by Oil Red O staining based assay relative to control; type: functional; set-up: scale not given: the % may be the effect or the level left
3T3-L1 [3] = assay: Hypolipidemic activity in mouse 3T3-L1 mature adipocytes assessed as reduction in lipid content at 10 uM by Oil Red O staining based assay relative to control; type: functional; set-up: scale not given: the % may be the effect or the level left
3T3-L1 [4] = assay: Hypolipidemic activity in mouse 3T3-L1 preadipocytes assessed as reduction in lipid content at 10 uM by Oil Red O staining based assay relative to control; type: functional; set-up: scale not given: the % may be the effect or the level left
Mus musculus [5] = assay: In vivo induction of AMPK in tyloxapol-induced Kunming mouse model of hyperlipidemia assessed as increase in CPT-1A phosphorylation in white adipose tissue at 100 mg/kg, po measured after 24 hrs by Western blot analysis; type: functional, organism-based
Mus musculus [6] = assay: In vivo induction of AMPK in tyloxapol-induced Kunming mouse model of hyperlipidemia assessed as increase in CPT-1A phosphorylation in liver at 100 mg/kg, po measured after 24 hrs by Western blot analysis; type: functional, organism-based
Mus musculus [7] = assay: In vivo effect on PPAR signaling in tyloxapol-induced Kunming mouse model of hyperlipidemia assessed as decrease in PPARgamma expression in white adipose tissue at 100 mg/kg, po measured after 24 hrs by Western blot analysis; type: functional, organism-based
Mus musculus [8] = assay: In vivo induction of AMPK in tyloxapol-induced Kunming mouse model of hyperlipidemia assessed as increase in AMPKalpha phosphorylation in liver at 100 mg/kg, po measured after 24 hrs by Western blot analysis; type: functional, organism-based
Mus musculus [9] = assay: In vivo induction of AMPK in tyloxapol-induced Kunming mouse model of hyperlipidemia assessed as decrease in SREBP1-C expression in liver at 100 mg/kg, po measured after 24 hrs by Western blot analysis; type: functional, organism-based
Mus musculus [10] = assay: Hypolipidemic activity in tyloxapol-induced Kunming mouse model of hyperlipidemia assessed as reduction in lipid level in liver at 100 mg/kg, po measured after 24 hrs by Oil Red O staining based assay; type: functional, organism-based
Mus musculus [11] = assay: Hypolipidemic activity in tyloxapol-induced Kunming mouse model of hyperlipidemia assessed as reduction in serum ALT level at 100 mg/kg, po measured after 24 hrs; type: functional, organism-based
Mus musculus [12] = assay: In vivo effect on PPAR signaling in tyloxapol-induced Kunming mouse model of hyperlipidemia assessed as decrease in PPARgamma expression in liver at 100 mg/kg, po measured after 24 hrs by Western blot analysis; type: functional, organism-based
Mus musculus [13] = assay: In vivo induction of AMPK in tyloxapol-induced Kunming mouse model of hyperlipidemia assessed as increase in AKT phosphorylation in white adipose tissue at 100 mg/kg, po measured after 24 hrs by Western blot analysis; type: functional, organism-based
Mus musculus [14] = assay: Hypolipidemic activity in tyloxapol-induced Kunming mouse model of hyperlipidemia assessed as increase in appearance of hepatic lobules at 100 mg/kg, po measured after 24 hrs by Oil Red O staining based assay; type: functional, organism-based
Mus musculus [15] = assay: In vivo induction of AMPK in tyloxapol-induced Kunming mouse model of hyperlipidemia assessed as increase in ACC phosphorylation in liver at 100 mg/kg, po measured after 24 hrs by Western blot analysis; type: functional, organism-based
Mus musculus [16] = assay: Hypolipidemic activity in tyloxapol-induced Kunming mouse model of hyperlipidemia assessed as reduction in serum LDL level at 100 mg/kg, po measured after 24 hrs; type: functional, organism-based
Mus musculus [17] = assay: In vivo effect on PPAR signaling in tyloxapol-induced Kunming mouse model of hyperlipidemia assessed as increase in PPARalpha expression in liver at 100 mg/kg, po measured after 24 hrs by Western blot analysis; type: functional, organism-based
Mus musculus [18] = assay: Hypolipidemic activity in tyloxapol-induced Kunming mouse model of hyperlipidemia assessed as spleen index at 100 mg/kg, po measured after 24 hrs (reference value: 3.87 +/- 0.05); type: functional
Mus musculus [19] = assay: Hypolipidemic activity in tyloxapol-induced Kunming mouse model of hyperlipidemia assessed as reduction in serum total cholesterol level at 100 mg/kg, po measured after 24 hrs; type: functional, organism-based
Mus musculus [20] = assay: Hypolipidemic activity in tyloxapol-induced Kunming mouse model of hyperlipidemia assessed as perirenal white adipose tissue index at 100 mg/kg, po measured after 24 hrs (reference value: 18.14 +/- 1.44); type: functional
Mus musculus [21] = assay: In vivo induction of AMPK in tyloxapol-induced Kunming mouse model of hyperlipidemia assessed as decrease in FAS expression in white adipose tissue at 100 mg/kg, po measured after 24 hrs by Western blot analysis; type: functional, organism-based
Mus musculus [22] = assay: In vivo induction of AMPK in tyloxapol-induced Kunming mouse model of hyperlipidemia assessed as decrease in SREBP1-C expression in white adipose tissue at 100 mg/kg, po measured after 24 hrs by Western blot analysis; type: functional, organism-based
Mus musculus [23] = assay: Hypolipidemic activity in tyloxapol-induced Kunming mouse model of hyperlipidemia assessed as kidney index at 100 mg/kg, po measured after 24 hrs (reference value: 11.20 +/- 0.58); type: functional
Mus musculus [24] = assay: Hypolipidemic activity in tyloxapol-induced Kunming mouse model of hyperlipidemia assessed as reduction in fatty liver phenotype at 100 mg/kg, po measured after 24 hrs; type: functional, organism-based
Mus musculus [25] = assay: Hypolipidemic activity in tyloxapol-induced Kunming mouse model of hyperlipidemia assessed as liver index at 100 mg/kg, po measured after 24 hrs (reference value: 65.00 +/- 0.87); type: functional
Mus musculus [26] = assay: Hypolipidemic activity in tyloxapol-induced Kunming mouse model of hyperlipidemia assessed as reduction in serum AST level at 100 mg/kg, po measured after 24 hrs; type: functional, organism-based
Mus musculus [27] = assay: Hypolipidemic activity in tyloxapol-induced Kunming mouse model of hyperlipidemia assessed as reduction in serum triglyceride level at 100 mg/kg, po measured after 24 hrs; type: functional, organism-based
Mus musculus [28] = assay: In vivo induction of AMPK in tyloxapol-induced Kunming mouse model of hyperlipidemia assessed as increase in AKT phosphorylation in liver at 100 mg/kg, po measured after 24 hrs by Western blot analysis; type: functional, organism-based
Mus musculus [29] = assay: In vivo induction of AMPK in tyloxapol-induced Kunming mouse model of hyperlipidemia assessed as increase in ACC phosphorylation in white adipose tissue at 100 mg/kg, po measured after 24 hrs by Western blot analysis; type: functional, organism-based
Mus musculus [30] = assay: Hypolipidemic activity in tyloxapol-induced Kunming mouse model of hyperlipidemia assessed as reduction in serum IL6 level at 100 mg/kg, po measured after 24 hrs; type: functional, organism-based
Mus musculus [31] = assay: Hypolipidemic activity in tyloxapol-induced Kunming mouse model of hyperlipidemia assessed as epididymis white adipose tissue index at 100 mg/kg, po measured after 24 hrs (reference value: 23.43 +/- 3.10); type: functional
Mus musculus [32] = assay: In vivo effect on PPAR signaling in tyloxapol-induced Kunming mouse model of hyperlipidemia assessed as increase in mTOR phosphorylation in liver at 100 mg/kg, po measured after 24 hrs by Western blot analysis; type: functional, organism-based
Mus musculus [33] = assay: In vivo induction of AMPK in tyloxapol-induced Kunming mouse model of hyperlipidemia assessed as decrease in FAS expression in liver at 100 mg/kg, po measured after 24 hrs by Western blot analysis; type: functional, organism-based
Mus musculus [34] = assay: In vivo effect on PPAR signaling in tyloxapol-induced Kunming mouse model of hyperlipidemia assessed as increase in PPARalpha expression in white adipose tissue at 100 mg/kg, po measured after 24 hrs by Western blot analysis; type: functional, organism-based
Mus musculus [35] = assay: In vivo effect on PPAR signaling in tyloxapol-induced Kunming mouse model of hyperlipidemia assessed as increase in mTOR phosphorylation in white adipose tissue at 100 mg/kg, po measured after 24 hrs by Western blot analysis; type: functional, organism-based
Mus musculus [36] = assay: In vivo induction of AMPK in tyloxapol-induced Kunming mouse model of hyperlipidemia assessed as increase in AMPKalpha phosphorylation in white adipose tissue at 100 mg/kg, po measured after 24 hrs by Western blot analysis; type: functional, organism-based
Mus musculus [37] = assay: In vivo effect on PPAR signaling in tyloxapol-induced Kunming mouse model of hyperlipidemia assessed as increase in PPARbeta expression in liver at 100 mg/kg, po measured after 24 hrs by Western blot analysis; type: functional, organism-based
Mus musculus [38] = assay: In vivo effect on PPAR signaling in tyloxapol-induced Kunming mouse model of hyperlipidemia assessed as decrease in PPARbeta expression in white adipose tissue at 100 mg/kg, po measured after 24 hrs by Western blot analysis; type: functional, organism-based
HepG2 [39] = assay: Activation of AMPK in oleic, palmitic, linoleic and arachidonic acid 29:47:18:6 (v/v)-induced human HepG2 cells assessed as increase in AMPK phosphorylation by Western blot; details: filed as activator
HepG2 [40] = assay: Activation of AMPK in oleic, palmitic, linoleic and arachidonic acid 29:47:18:6 (v/v)-induced human HepG2 cells assessed as increase in ACC phosphorylation by Western blot; details: filed as activator

SMILES | Activity (HepG2 [1]) | Activity (Mus musculus [5]) | Activity (Mus musculus [6]) | Activity (Mus musculus [7]) | Activity (Mus musculus [8]) | Activity (Mus musculus [9]) | Activity (Mus musculus [10]) | Activity (Mus musculus [11]) | Activity (Mus musculus [12]) | Activity (Mus musculus [13]) | Activity (Mus musculus [14]) | Activity (Mus musculus [15]) | Activity (Mus musculus [16]) | Activity (Mus musculus [17]) | Activity_index (Mus musculus [18]) | Activity (Mus musculus [19]) | Activity_index (Mus musculus [20]) | Activity (Mus musculus [21]) | Activity (Mus musculus [22]) | Activity_index (Mus musculus [23]) | also measured
CC(C)=CCc1c(O)cc(O)c(C(=O)/C=C/c2ccc(O)cc2)c1O [DEMETHYLXANTHOHUMOL] | Non-Toxic |  |  |  |  |  |  |  |  |  |  |  |  |  |  |  |  |  |  |  | 
O=C(/C=C/c1ccc(O)cc1)c1c(O)cc(O)cc1O [4,2',4',6'-TETRAHYDROXYCHALCONE] | Non-Toxic |  |  |  |  |  |  |  |  |  |  |  |  |  |  |  |  |  |  |  | 
CC[C@H](C)C(=O)O[C@H]1C[C@@H](C)C=C2C=C[C@H](C)[C@H](CC[C@@H]3C[C@@H](O)CC(=O)O3)[C@H]21 [LOVASTATIN] |  |  |  |  |  |  |  |  |  |  |  |  |  |  |  |  |  |  |  |  | Activity (HepG2 [2]): 41.17%; Activity (3T3-L1 [3]): 47.2%; Activity (3T3-L1 [4]): 67.14%
CC(C)OC(=O)C(C)(C)Oc1ccc(C(=O)c2ccc(Cl)cc2)cc1 [FENOFIBRATE] |  | Active | Active | Active | Active | Active | Active | Active | Active | Active | Active | Active | Active | Active | 2.85 | Active | 14.55 | Active | Active | 9.65 | Activity (Mus musculus [24]): Active; Activity_index (Mus musculus [25]): 56.59; Activity (Mus musculus [26]): Active; Activity (Mus musculus [27]): Active; Activity (Mus musculus [28]): Active; Activity (Mus musculus [29]): Active; Activity (Mus musculus [30]): Active; Activity_index (Mus musculus [31]): 15.43; Activity (Mus musculus [32]): Active; Activity (Mus musculus [33]): Active; Activity (Mus musculus [34]): Active; Activity (Mus musculus [35]): Active; Activity (Mus musculus [36]): Active; Activity (Mus musculus [37]): Active; Activity (Mus musculus [38]): Active
NC(=O)c1ncn([C@@H]2O[C@H](CO)[C@@H](O)[C@H]2O)c1N [ACADESINE] |  | Active | Active | Active | Active | Active | Active | Active | Active | Active | Active | Active | Active | Active | 3.01 | Active | 15.94 | Active | Active | 8.64 | Activity (HepG2 [39]): Active; Activity (Mus musculus [24]): Active; Activity_index (Mus musculus [25]): 57.41; Activity (Mus musculus [26]): Active; Activity (Mus musculus [27]): Active; Activity (Mus musculus [28]): Active; Activity (Mus musculus [29]): Active; Activity (Mus musculus [30]): Active; Activity_index (Mus musculus [31]): 20.09; Activity (Mus musculus [32]): Active; Activity (Mus musculus [33]): Active; Activity (Mus musculus [34]): Active; Activity (Mus musculus [35]): Active; Activity (Mus musculus [36]): Active; Activity (Mus musculus [37]): Active; Activity (HepG2 [40]): Active; Activity (Mus musculus [38]): Active
